Results on three compounds are retold here after patent US4920106A, “Acetylenic cyclic carbonates” (Merck & Co., Inc., priority 1989, dated 1990).

Structures are written as SMILES. ≈ marks a conversion by molar mass, not a printed value.

For one data set, the system named is Candida albicans MY 1055. As to the kind of experiment: Antifungal Assay (minimum inhibitory concentration, Candida albicans MY 1055). The class given is cell-based. To be noted: Yeast Nitrogen Base/0.5% glucose; inoculum 3-5×10^-4 CFU/ml; 37° C., 18 hours; lowest concentration that inhibits visible growth. The method, then:
Antifungal activity was determined against Candida albicans MY 1055, a yeast strain maintained by Merck and Co., Rahway, New Jersey. Minimum inhibitory concentrations were determined using a starting inoculum of 3-5×10^-4 CFU/ml. The medium was Yeast Nitrogen Base/0.5% glucose. Test compounds were dissolved in a minimum amount of 50% aqueous ethanol and diluted to final concentrations with yeast medium. Samples were incubated at 37° C. for 18 hours. The minimum inhibitory concentration (MIC), reported in μg/ml, is the lowest concentration of test compound that inhibits visible growth.

Data set [1] concerns the target T1, Acetoacetyl-coenzyme A thiolase (Rattus norvegicus, UniProt Q5XI22).
T1 construct: prepared from the livers of Sprague Dawley rats treated in the diet for one week with 0.075% lovastatin to induce the enzyme; from tissue; host or cells: liver of lovastatin-fed Sprague Dawley rats
The data set can be described thus: Acetoacetyl-Coenzyme A Thiolase Inhibition. Type of data set: biochemical, Sprague Dawley rats. To be noted: Table II; text: IC50, concentration that inhibits 50% of thiolase activity; enzyme from livers of lovastatin-treated rats; pH 7.5, room temperature, 340 nm NADH oxidation; read-out: MIC. The method, then: Acetoacetyl-coenzyme A thiolase was prepared from the livers of Sprague Dawley rats treated in the diet for one week with 0.075% lovastatin to induce the enzyme. Acetoacetyl-coenzyme A thiolase was purified through the DEAE-cellulose step essentially as described by Mehrabian et al., J. Biol. Chem., 261, 16249-16255 (1986), but modified slightly by carrying out the 30-50% ammonium sulfate precipitation of the enzyme and a dialysis before the DEAE-cellulose step. The 0.06M eluate described by Mehrabian et al. contained the acetoacetyl-coenzyme A thiolase. The isolate was concentrated by ammonium sulfate precipitation, dissolved in the buffer used for elution, and stored at -70° C.
Inhibition of acetoacetyl-coenzyme A thiolase was measured by coupling the formation of acetoacetyl-coenzyme A to its subsequent reduction by β-hydroxybutyryl-coenzyme A dehydrogenase to β-hydroxybutyryl-coenzyme A and monitoring the resultant oxidation of NADH with a spectrophotometer set at 340 nm. […] Reaction was measured at room temperature for a time period necessary to produce a measurable reaction rate. […]

In the next data set the test system is cytosolic β-ketothiolase. To be noted: background statement; cited from earlier work.
The subject of data set [2] is certain bacterial strains. To be noted: background statement; cited from earlier work.
For data set [3] the following is noted: background statement; cited from earlier work.
The test system of a further data set is certain fungal strains. To be noted: background statement; cited from earlier work.

T1 sequence (Q5XI22 whole entry): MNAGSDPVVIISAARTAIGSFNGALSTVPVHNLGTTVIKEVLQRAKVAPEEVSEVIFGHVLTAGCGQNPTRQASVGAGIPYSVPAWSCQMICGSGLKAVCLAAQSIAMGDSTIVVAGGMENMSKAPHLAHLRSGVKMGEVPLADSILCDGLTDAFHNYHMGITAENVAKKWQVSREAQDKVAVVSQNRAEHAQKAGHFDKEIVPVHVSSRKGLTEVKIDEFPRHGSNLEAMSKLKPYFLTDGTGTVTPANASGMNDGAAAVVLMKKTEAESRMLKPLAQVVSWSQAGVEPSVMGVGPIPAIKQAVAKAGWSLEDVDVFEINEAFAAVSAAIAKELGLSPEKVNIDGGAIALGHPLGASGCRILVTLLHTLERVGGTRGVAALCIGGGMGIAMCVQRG

As usually defined, the MIC is the least concentration at which growth counts as inhibited. High values mean a need for much substance, low ones inhibition by little substance. Regarding `COC(=O)CCCCCC[C@@H]1OC(=O)O[C@H]1C(O)C#CC#CC#C[Si](C)(C)C` (single isomer, unassigned) [Ex. 6], the MIC against Candida albicans MY 1055 was found to be 0.6 µg/mL (≈ 1.48 µM).
As to `CC#CC#CC#C[C@@H](OC)[C@@H]1OC(=O)O[C@H]1CCCCCCC(=O)OC` [Ex. 13, 5-(1(R)-Methoxy-2,4,6-octatriynyl)-2-oxo-4(S),5(S)-1,3-dioxolane-4-heptanoic acid, methyl ester], the MIC in the data set on Candida albicans MY 1055 stood at 5 µg/mL (≈ 13.9 µM). Besides, the IC50 in data set [1] amounted to 560 nM.
`C#CC#CC#CC(O)C1OC(=O)OC1CCCCCCC(=O)O` (stereo not shown) [triyne carbonate A, 5-(1-hydroxy-2,4,6-heptatriynyl)-2-oxo-1,3-dioxolane-4-heptanoic acid]: the “inhibitor of cytosolic β-ketothiolase” value in the data set with cytosolic β-ketothiolase was “potent inhibitor”. The “active against certain bacterial strains” value in data set [2] is “active”. For the same compound, the “instability of the compound in vivo” value in data set [3] is listed as “relative instability”. In addition, the “active against certain fungal strains” value in the data set on certain fungal strains is given as “active”.
